Test results reported in patent US9453026B2, “ACC inhibitors and uses thereof” (Gilead Apollo, Inc., priority 2011, dated 2016).
Like-named read-outs stand apart in the source and are kept apart here.

Columns and labels:
ACC1 = ACC1 (Homo sapiens, UniProt Q13085); assay: In vitro ACC1 inhibition assay (ADP-Glo); type: biochemical
Procedure, shortened: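 Enzyme (human ACC1 or ACC2) and compound, serially diluted 1:3 over 11 points from a 600 uM DMSO stock, were preincubated 15 min before substrate addition.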

C. albicans ATCC 90028 = assay: Anti-Fungal Activity Assay (broth microtiter MIC); type: cell-based; conditions: 3 replicates, test compounds read at 48 h
Procedure: (§1) Compounds of the present invention were evaluated in an Anti-Fungal Activity Assay. An exemplary procedure for the assay, which measures the susceptibility of various Candida species to anti-fungal compounds, follows. Compounds to be tested (including fluconazole and amphotericin B) were dissolved in DMSO to obtain a solution having a concentration of 1 mg/mL. […] All species were grown from frozen stock by directly plating on to freshly prepared Sabouraud Dextrose agar (BD, Difco) and incubated overnight in ambient air at 35° C. for 24 h. A direct suspension was prepared in RPMI 1640+MOPS (Lonza, Biowhittaker) by taking individual colonies from the overnight cultures using sterile swabs soaked in sterile saline. The concentration of the suspension was determined using pre-determined standard curves. […] The original CLSI guidelines focused on reading Candida MICs after 48 h of incubation. As reading after only 24 h offers a clear advantage of patient care, QC limits are being established for all drugs at 24 h. That being said there are no known interpretive breakpoints for amphotericin B at 24 h and the current fluconazole interpretive breakpoints are based on a 48 h reading. The MIC breakpoints for the Pharmaron test compounds were recorded at 48 h, and for the soraphen the 24 h time-point was added. All MIC determinations were achieved by visually comparing the growth found in the antibiotic challenged wells to that of the growth control.

C. krusei ATCC 6258 = assay: Anti-Fungal Activity Assay (broth microtiter MIC); type: cell-based; conditions: 3 replicates, test compounds read at 48 h
Procedure: as §1

[1] = test system: C. parapsilosis ATCC 22019; assay: Anti-Fungal Activity Assay (broth microtiter MIC); type: cell-based; conditions: 3 replicates, test compounds read at 48 h
Procedure: as §1

fatty acid synthesis = assay: In Vivo Fatty Acid Synthesis Study ([C14]-acetate incorporated into rat liver tissue); conditions: oral, FIG. 8 and FIG. 16
Procedure: Compounds of the present invention were also assayed in an In Vivo Fatty Acid Synthesis Study as described by Harwood et al. “Isozyme-nonselective N-Substituted Bipiperidylcarboxamide Acetyl-CoA Carboxylase Inhibitors Reduce Tissue Malonyl-CoA Concentrations, Inhibit Fatty Acid Synthesis, and Increase Fatty Acid Oxidation in Cultured Cells and in Experimental Animals” Journal of Biological Chemistry (2008) 278, 37099-37111. An exemplary procedure for the assay, which measures the amount of radioactive [C^14]-acetate incorporated into rat liver tissue, follows.
Animals given food ad water ad libitum were treated orally at a volume of 1.0 mL/200 g body weight (rat) with either an aqueous solution containing 0.5% methylcellulose (vehicle), or an aqueous solution containing 0.5% methylcellulose plus test compound. One to four hours after compound administration, animals received an intraperitoneal injection of 0.5 mL of [C^14]-acetate (64 uCi/mL; […]). […] The pooled organic fractions were transferred to liquid scintillation vials, dried under nitrogen, dissolved in 7 mL of Aquasol liquid scintillation fluid, and assessed for radioactivity using a Beckman 6500 liquid scintillation counter. Results were recorded as disintigrations per minute (DPM) per milligram of tissue.

COc1ccccc1[C@H](Cn1c(=O)n(C(C)(C)C(=O)O)c(=O)c2c(C)c(-c3ncco3)sc21)OC1CCOCC1 [I-181, 2-[1-[2-(2-methoxyphenyl)-2-(oxan-4-yloxy)ethyl]-5-methyl-6-(1,3-oxazol-2-yl)-2,4-dioxo-1H,2H,3H,4H-thieno[2,3-d]pyrimidin-3-yl]-2-methylpropanoic acid]
IC50 (ACC1): < 100 nM | MIC (C. albicans ATCC 90028): >64 µg/mL | MIC (C. albicans ATCC 90028; Candida albicans, ATCC90028, 48 h, read-out: MIC): > 64 µg/mL | MIC (C. krusei ATCC 6258): >64 µg/mL | MIC (C. krusei ATCC 6258; Pichia kudriavzevii, ATCC6258, 48 h, read-out: MIC): > 64 µg/mL | MIC [1]: >64 µg/mL | MIC ([1]; Lodderomyces parapsilosis, ATCC22019, 48 h, read-out: MIC): > 64 µg/mL | ED50, fatty acid synthesis in rats (fatty acid synthesis): less than 0.3 mg/Kg body weight
